Laboratory results reported in US20100048594A1, “USE OF CYTOHESIN INHIBITORS FOR CHEMICALLY INDUCING LONGEVITY” (RHEINISCHE FRIEDRICH-WILHELMS UNIVERSITAT, priority 2006, published 2010).

Tests used:
[1] = test system: Drosophila eukaryotic initiation factor 4E binding protein (d4EBP, Thor); assay: Transcription rate of insulin target gene d4EBP in insulin-treated Drosophila S2 cells (real-time PCR); assay type: cell-based; conditions: 100 μM compound, 10 μg/ml human insulin, insulin alone less than 35%
Experimental: Drosophila Schneider 2 (S2) cells were cultivated in Schneider's Medium (PAN company) with 10% heat-inactivated fetal calf serum (FCS). 2×10^6 cells were drawn into 35 mm vessels at 25° C. to 80% confluence, washed one time in phosphate buffered saline solution (1×PBS, Gibco), and transferred for twelve hours to Schneider's Medium, without FCS. The cells were then preincubated for two hours with 0.5% DMSO containing Schneider's Medium, without FCS, with or without the compound according to formula (9) or formula (25), with the final concentrations of the compounds according to formulas (9) and (25) being 1 μM, 10 μM and 100 μM. This was followed by a four-hour stimulation with 10 μg/ml human insulin (Sigma).
After washing the cells two times with PBS, total RNA was then isolated from the cells using the NucleoSpin RNA II Kit (Macherey & Nagel), according to the manufacturer's instructions. The first strain cDNA synthesis was performed with every 500 ng RNA, using the QuantiTect Reverse Transcription Kit (Qiagen), according to the manufacturer's instructions. […]
The activity of the insulin signaling pathway was determined from the transcription rate of the insulin target gene Drosophila eukaryotic initiation factor 4E binding protein (d4EBP, Thor). […]

[2] = test system: Drosophila melanogaster flies; assay: Lifespan of adult Drosophila melanogaster flies fed with compound (Kaplan-Meier analysis); assay type: in vivo; conditions: 10 μM compound in food; for Average Lifespan: ±margin of error
Experimental: The experiments were conducted on isogenic flies (Drosophila melanogaster) of the genotype white^1118, also called white^− or w^−, and mutants (w^1118; step^k08110/step^SH0323) (strain # 10770 from the public Bloomington Stock Center, genotype: step^k08110/CyO, URL http://flybase.bio.indiana.edu/reports/FBstOO10770.html; strain # FBst0103734 from the public Szeged Stock Center, genotype: step^SH0323/CyO, URL http://flybase.bio.indiana.edu/reports/FBst0103734.html), in which the Drosophila cytohesin steppke is mutated and therefore defective.
By crossing the two steppke alleles k08110 and SH0323 eight times with whites flies, an isogenic genetic background is produced, which permits a comparison of the lifespans between the genotypes of the type white^1118 and the mutants (w^1118; step^k08110/step^SH0323). The average lifespan of the wild type was approximately 25 days, while that of the mutants (w^1118; step^k08110/step^SH0323) was approximately 30 days.
To produce the special food, 32.5 g autolysed yeast (Fluka (Catalog No. 73145)) and 10 g agar (Difco (Catalog No. 281230)) were mixed with 300 ml water (demineralized, Roth (Catalog No. 3175)) and autoclaved at 120° C. for 20 minutes. The solution was cooled to 60° C., and 32.5 g α-D(+)-glucose monohydrate (Roth (Catalog No. 6887)) were added under stirring. 15 ml 10% (w/v) p-hydroxybenzoic acid methylester (Sigma (Catalog No. H3647)) solution dissolved in 70% (v/v) ethanol (Roth (Catalog No. 9065)) and 1.35 ml dimethylsulfoxide (DMSO, Roth (Catalog No. A994)) were then added. Water was then added to this basic solution to a volume of 450 ml, which was then held at a temperature of 60° C. For the control food, 50 ml of a 0.7% (v/v) DMSO solution in water were produced. For the food containing the compounds according to formulas (9) or (25), 0.2 ml of a 25 mM solution of the compounds according to formula (9) or (25) in 100% DMSO were added to 49.8 ml of a 0.3012% DMSO solution in water.
These 50 ml of the control solutions and the solutions containing the compounds according to formula (9) or (25) were each mixed with 450 ml of the basic solution, and were placed in 4 ml amounts in polystyrene containers (height 9.5 cm, diameter 2.4 cm, sealed with cotton wadding) to maintain the flies. After 24 hours, the cooled containers were sealed with cotton wadding and stored at 4° C.
The final concentration of the food components in the control food was 6.5% (w/v) autolysed yeast, 6.5% (w/v) α-D(+)-glucose monohydrate, 2% (w/v) agar, 0.3% (w/v) p-hydroxybenzoic acid methylester, 2.1% ethanol (v/v), 0.34% (v/v) DMSO.
(§1) The final concentration of the food components in the food containing the compound according to formula (9) was 6.5% (w/v) autolysed yeast, 6.5% (w/v) α-D(+)-glucose monohydrate, 2% (w/v) agar, 0.3% (w/v) p-hydroxybenzoic acid methylester, 2.1% ethanol (v/v), 0.34% (v/v) DMSO, 10 μM compound according to formula (9).
as §1, with “(25)” for “(9)”, “(25).” for “(9).”
The larvae were maintained on standard fly food containing 1.1% (w/v) brewer's yeast (“Gewürzmühle Brecht” company), 5.43% (w/v) cornmeal, 0.53% (w/v) filamentous agar (“Gewürzmühle Brecht” company), 6.6% (v/v) sugar beet syrup (Grafschafter), 1.3% (v/v) ethanol (Roth company), 0.13% (w/v) p-hydroxybenzoic acid methylester (Sigma).
24 hours after emergence of the imagines, the adult flies, females and males were separated under a brief CO2 anesthetization lasting less than 2 minutes. During the 24 hours after emergence, the animals were fed using standard fly food. […]

COc1nc(-c2ccc(C(C)(C)C)cc2)n(-c2ccc(NC(=O)CSc3ccccc3)cc2)n1 [Compound (25)]
transcription rate of d4EBP as % of that of the untreated control groups [1]: more than 95%
change in lifespan ([2]; control animals and mutants): no significant change
Average Lifespan ([2]; genotype w^1118, female flies): 25.0 (±0.7) Days
Average Lifespan ([2]; genotype w^1118, step^k08110/step^SH0323 mutants, female flies): 29.3 (±0.7) Days
